In patent publication US20100233746A1, “Inflammation and Oxidative Stress Level Assay” (priority 2007, published 2010):

Test system: rats
Assay: nephrotoxicity model: eicosanoids in plasma of rats receiving puromycin, LC-MS/MS
Type: in vivo
Settings: 4 groups receiving different dosages of puromycin, FIG. 4
Protocol: To determine free fatty acid metabolites in various biological materials, a small amount of sample (20 μL) was applied onto a filter spot containing stable isotopes for the various metabolites in a microtiter plate and extracted in aqueous methanol without further derivatization as described in FIG. 1. Separation of metabolites was done on a RP-HPLC (Zorbax Eclipse C18, 3.0×100 mm, 3.5 μm) column after injection of 20 μL extract using an Agilent 1100 system (Agilent Technologies) with an HTC PAL autosampler (CTC Analytics). Mobile phase compositions were A: H2O with 0.05% (v/v) formic acid and B: acetonitrile with 0.05% (v/v) formic acid. Flow rate was constant at 500 μL/min, metabolites were separated by gradient elution. Detection was done by MRM transitions in negative detection mode using an API4000Qtrap® equipped with an ESI source (Applied Biosystems). Quantification of metabolites was performed with Analyst v.1.4.2 quantitation.
Test cases of disease states show an increase of free fatty acids, prostaglandins and hydroxylated species in conjunction with pulmonary inflammations, prostate cancer and cardiovascular disease. […]
Plasma samples obtained from 4 groups of rats receiving different dosages of puromycin were analyzed.
FIGS. 4a, 4b, 4c and 4d. […] The concentrations of 4 different eicosanoids (as indicated) in rat plasma samples have been determined and normalized.

COc1ccc(C[C@H](N)C(=O)N[C@H]2[C@@H](O)[C@H](n3cnc4c(N(C)C)ncnc43)O[C@@H]2CO)cc1 [puromycin]
cyclooxygenase and lipoxygenase activity (concentrations of 4 different eicosanoids in rat plasma, normalized): Increased cyclooxygenase and lipoxygenase activity
